How the values were obtained:
[1] = (§1) Measurement of Sodium Ion Channel Blocking Effects: In order to measure the sodium ion channel blocking effect, an IonFlux16 Auto patch clamp system (Fluxion, Inc.) and a plate for exclusive use were used. The cells were distributed in an extracellular solution (4 mM KCl, 138 mM NaCl, 1 mM MgCl2, 1.8 mM CaCl2, 5.6 mM glucose, 10 mM HEPES, pH 7.45), and then dispensed in the specified region of the plate, and each of the prepared compound samples was diluted at various concentrations, and then dispensed in the specified region of the plate.; format: cell-based
[2] = as §1; format: cell-based; remark: listed apart in the source

Row | IC50 [1] [nM] | IC50 [2] [nM] | Compound
1 | > 10000 | 100 | CNCCN(C)c1ccccc1Nc1cc(F)c(S(=O)(=O)Nc2ncc(F)cn2)cc1Cl
2 | > 10000 | 230 | CNCCN(C)c1cc(C#N)ccc1Nc1cc(F)c(S(=O)(=O)Nc2ccc(F)cn2)cc1Cl
3 | > 10000 | 12 | CNC1CCN(c2cc(OC)ccc2Nc2cc(F)c(S(=O)(=O)Nc3cscn3)cc2Cl)C1 (configuration not stated)
4 | 1830 | 9 | CNCCN(C)c1cc(F)ccc1Nc1cc(F)c(S(=O)(=O)Nc2ncc(F)s2)cc1Cl
5 | > 10000 | 120 | CNCCN(C)c1cc(C#N)ccc1Nc1cc(F)c(S(=O)(=O)Nc2cscn2)cc1Cl
6 | > 10000 | 49 | CN[C@@H]1CCCN(c2cc(F)ccc2Nc2ccc(S(=O)(=O)Nc3cscn3)cc2Cl)C1
7 | > 10000 | 40 | CNCCN(C)c1ccccc1Nc1cc(F)c(S(=O)(=O)Nc2cscn2)cc1Cl
8 | > 10000 | 86 | CNC1CCN(c2c(F)cccc2Nc2cc(F)c(S(=O)(=O)Nc3cscn3)cc2Cl)C1 (configuration not stated)
9 | > 10000 | > 10000 | CNC1CCN(c2cc(F)ccc2Nc2cc(F)c(S(=O)(=O)Nc3cncnc3)cc2Cl)C1 (configuration not stated)
10 | > 10000 | 20 | CNCCN(C)c1cc(F)ccc1Nc1cc(F)c(S(=O)(=O)Nc2nccs2)cc1Cl
11 | > 10000 | 110 | CNC1CCN(c2cc(F)ccc2Nc2cc(F)c(S(=O)(=O)Nc3ncc(F)cn3)cc2Cl)C1 (configuration not stated)
12 | > 10000 | 396 | CNC1CCN(c2cc(F)ccc2Nc2ccc(S(=O)(=O)Nc3cscn3)cc2)C1 (configuration not stated)
13 | > 10000 | 58 | CNC1CCN(c2cc(C(F)(F)F)ccc2Nc2ccc(S(=O)(=O)Nc3cscn3)c(F)c2)C1 (configuration not stated)
14 | > 10000 | 13 | CNC1CCN(c2ccccc2Nc2ccc(S(=O)(=O)Nc3cscn3)cc2Cl)C1 (configuration not stated)
15 | 8200 | 30 | CNCCN(C)c1cc(C(F)(F)F)ccc1Nc1cc(F)c(S(=O)(=O)Nc2cscn2)cc1Cl
16 | > 10000 | 1500 | C[C@H]1CN(c2cc(Cl)ccc2Nc2cc(F)c(S(=O)(=O)Nc3cscn3)cc2Cl)CCN1
17 | > 10000 | – | CNC1CCN(c2cc(F)ccc2Nc2cc(F)c(S(=O)(=O)Nc3cscn3)cc2Cl)C1 (configuration not stated)
18 | > 10000 | 60 | CNCCN(C)c1cc(C(F)(F)F)ccc1Nc1cc(F)c(S(=O)(=O)Nc2ncc(F)cn2)cc1Cl
19 | > 10000 | 26 | CNC1CCN(c2cc(Cl)ccc2Nc2cc(F)c(S(=O)(=O)Nc3cscn3)cc2Cl)C1 (configuration not stated)
20 | > 10000 | 28 | CN1CCN(c2cc(OC(F)(F)F)ccc2Nc2cc(F)c(S(=O)(=O)Nc3cscn3)cc2Cl)CC1

Row | IC50 [1] [nM] | IC50 [2] [nM] | Compound
21 | 6720 | 103 | C[C@@H]1CNCCN1c1cc(Cl)ccc1Nc1cc(F)c(S(=O)(=O)Nc2cscn2)cc1Cl
22 | > 10000 | 110 | CNCCN(C)c1cc(F)ccc1Nc1cc(F)c(S(=O)(=O)Nc2ccccn2)cc1Cl
23 | > 10000 | 53 | CNC1CCN(c2ccccc2Nc2ccc(S(=O)(=O)Nc3cscn3)c(F)c2)C1 (configuration not stated)
24 | > 10000 | 360 | CNC1CCN(c2cc(F)ccc2Nc2cc(F)c(S(=O)(=O)Nc3cc(C)on3)cc2Cl)C1 (configuration not stated)
25 | > 10000 | 300 | CNC1CCN(c2cc(F)ccc2Nc2cc(F)c(S(=O)(=O)Nc3cnccn3)cc2Cl)C1 (configuration not stated)
26 | > 10000 | 66 | CN[C@@H]1CCCN(c2cc(F)ccc2Nc2cc(F)c(S(=O)(=O)Nc3cscn3)cc2Cl)C1
27 | > 10000 | 1090 | CNCCN(C)c1cc(C#N)ccc1Nc1cc(F)c(S(=O)(=O)Nc2ncc(F)cn2)cc1Cl
28 | – | 182 | CCN(CC)C1CCN(c2cc(Cl)ccc2Nc2cc(F)c(S(=O)(=O)Nc3cscn3)cc2Cl)C1 (configuration not stated)
29 | – | 1930 | CC(=O)N[C@@H]1CCN(c2cc(F)ccc2Nc2cc(F)c(S(=O)(=O)Nc3cscn3)cc2Cl)C1
30 | – | 372 | CNC1CCN(c2cc(F)ccc2Nc2ccc(S(=O)(=O)Nc3cscn3)c(F)c2)C1 (configuration not stated)
31 | – | 28 | CN[C@H]1CCN(c2cc(C(F)(F)F)ccc2Nc2ccc(S(=O)(=O)Nc3cscn3)cc2Cl)C1
32 | – | 241 | NC1CCN(c2cc(F)ccc2Nc2ccc(S(=O)(=O)Nc3cscn3)cc2Cl)C1 (configuration not stated)
33 | – | 362 | CN[C@@H]1CCN(c2cc(F)ccc2Nc2ccc(S(=O)(=O)Nc3cscn3)cc2Cl)C1
34 | 5540 | 8 | CNCCN(C)c1cc(F)ccc1Nc1cc(F)c(S(=O)(=O)Nc2ncc(Cl)s2)cc1Cl
35 | – | 489 | CNC1CCN(c2cc(C)ccc2Nc2cc(F)c(S(=O)(=O)Nc3cscn3)cc2Cl)C1 (configuration not stated)
36 | – | 126 | CN(C)[C@@H]1CCN(c2cc(OC(F)F)ccc2Nc2cc(F)c(S(=O)(=O)Nc3cscn3)cc2Cl)C1
37 | – | 50 | CNCCN(C)c1cc(F)ccc1Nc1cc(F)c(S(=O)(=O)Nc2ncc(C)s2)cc1Cl
38 | > 10000 | 51 | CNC1CCN(c2ccccc2Nc2ccc(S(=O)(=O)Nc3cscn3)cc2)C1 (configuration not stated)
39 | – | > 1000 | CN[C@@H]1CCCN(c2cc(OC)ccc2Nc2ccc(S(=O)(=O)Nc3cscn3)cc2Cl)C1
